Laboratory results taken from US20060110790A1, “Expression system for large functional proteins” (priority 2002, published 2006).

Target: T1, individually expressed C half of ABCR (Homo sapiens, UniProt P78363)
T1 construct: The cDNAs coding for the N-half (amino acids 1-1325) and C-half (amino acids 1326-2273) of ABCR; made in house; host or cells: COS-1 cells
T1 sequence (P78363 1326-2273): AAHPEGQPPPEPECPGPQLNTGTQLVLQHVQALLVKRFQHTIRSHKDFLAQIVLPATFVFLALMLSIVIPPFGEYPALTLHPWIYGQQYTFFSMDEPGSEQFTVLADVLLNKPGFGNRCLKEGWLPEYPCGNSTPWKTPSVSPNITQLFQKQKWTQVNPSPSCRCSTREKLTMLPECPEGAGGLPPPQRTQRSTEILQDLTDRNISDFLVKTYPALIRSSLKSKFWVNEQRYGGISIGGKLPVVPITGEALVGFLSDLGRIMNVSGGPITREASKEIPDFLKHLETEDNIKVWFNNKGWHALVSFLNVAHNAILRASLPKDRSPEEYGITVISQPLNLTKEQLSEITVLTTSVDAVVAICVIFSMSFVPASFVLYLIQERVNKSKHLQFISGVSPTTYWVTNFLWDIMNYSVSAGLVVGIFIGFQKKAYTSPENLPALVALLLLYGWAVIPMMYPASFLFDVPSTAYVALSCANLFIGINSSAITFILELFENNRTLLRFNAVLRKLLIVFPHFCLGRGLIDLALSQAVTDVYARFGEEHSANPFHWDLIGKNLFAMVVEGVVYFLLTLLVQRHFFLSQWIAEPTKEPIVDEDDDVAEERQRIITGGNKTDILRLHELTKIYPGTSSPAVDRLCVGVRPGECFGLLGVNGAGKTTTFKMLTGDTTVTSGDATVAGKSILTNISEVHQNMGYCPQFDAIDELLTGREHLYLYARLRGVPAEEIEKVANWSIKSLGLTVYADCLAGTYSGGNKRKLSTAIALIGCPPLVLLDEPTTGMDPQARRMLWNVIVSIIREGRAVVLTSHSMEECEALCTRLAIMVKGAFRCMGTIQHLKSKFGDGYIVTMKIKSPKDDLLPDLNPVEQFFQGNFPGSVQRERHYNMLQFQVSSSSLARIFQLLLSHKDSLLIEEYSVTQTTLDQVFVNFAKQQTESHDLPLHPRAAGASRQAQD
Test: Retinal-stimulated ATPase activity of purified protein reconstituted in lipid vesicles
Assay type: biochemical
Conditions: individually expressed in COS-1 cells, 50 μM [α32P]ATP
Experimental: Membranes (from two 10 cm dishes) were solubilized in 0.5 ml of 1% Triton-X100 in Buffer A (140 mM NaCl, 20 mM Tris-HCl, pH 7.4) for 20 min on ice. For ATPase assays, the membrane preparation step was omitted and the cell suspension was solubilized directly in Buffer B (10 mg/ml soybean phospholipids, 10% glycerol, 1 mM dithiothreitol, 100 mM NaCl, 3 mM MgCl2, 50 mM NaHEPES, pH 7.4) containing 18 mM CHAPS. The supernatant after a 10 min centrifugation at 40,000 rpm (TLA100.4 rotor) was mixed with 50 μl Rim3F4 Sepharose 2B for 1 h at 4° C. The beads were washed 6 times in Buffer A containing 0.2% Triton X-100 or Buffer B containing 10 mM CHAPS and eluted with 4% SDS (for electrophoresis) or 0.2 mg/ml Rim3F4 peptide (for reconstitution and determination of ATPase activity). Purified protein (24 μl) was incubated with 6 μl of 50 mg/ml lipid (1:1 mixture of dioleoylphosphatidylethanolamine and brain polar lipid, by weight) and 3 μl n-octylglucoside for 30 min on ice. The mixture was diluted rapidly with 200 μl of Buffer C (1 mM dithiothreitol, 140 mM NaCl, 25 mM NaHEPES, pH 7.4) and passed through a 200 μl Extracti-gel column (Pierce). The flow-through containing the reconstituted protein was used for determination of ATPase activity.
ATPase activity was measured as described previously (Ahn, J., Wong, J. T., and Molday, R. S. (2000) J Biol Chem 275(27), 20399-405) using 50 μM [α^32P]ATP and thin layer chromatography. The all-trans retinal concentration was determined spectrophotometrically (λ383 nm=42.88 mM^−1 cm^−1). Protein concentration was estimated from the eluate before reconstitution by laser densitometry of Coomassie blue stained gels using bovine serum albumin as a standard. […] Direct protein measurements after reconstitution by densitometry of Western blots was about half of that in the eluate. […]
ATPase Activity of Expressed N and C Halves—The basal and retinal activated ATPase activity of full-length ABCR and the N and C halves individually or co-expressed in COS-1 cells was determined after immunoaffinity purification and reconstitution into lipid vesicles. […]

stimulation of ATPase activity: not stimulated
SMILES: CC1=C(/C=C/C(C)=C/C=C/C(C)=C/C=O)C(C)(C)CCC1 [all-trans retinal]
